This experiment deals with T1, Roche FastStart Taq polymerase (Thermus aquaticus, UniProt P19821).
T1 construct: purchased Roche
Put plainly: Multiplex end-point PCR (GAPDH) with stabilized Roche FastStart Taq after storage. Format: biochemical. To be noted: 3 weeks at 45° C.; polymerase mixed 1:4 with stabilizer; FIG. 1b. On the procedure: Roche FastStart Taq polymerase (stored at −20° C. in 50% glycerol) was mixed in a 1:4 ratio with a range of liquid stabilizer solutions as set forth in Table 4 and incubated at both room temperature and 45° C. A non-protected sample was also included where the polymerase was mixed with an additional quantity of its storage buffer. At various time points, aliquots were taken from the stabilized enzyme solutions and used to perform end-point PCR assays. At each time point, the stabilized enzymes were compared to a frozen positive control enzyme in the same assay.
For end-point PCR, a multiplex assay using three primer sets to generate 3 different size fragments of the GAPDH gene was used. Typical PCR reactions contained the following: 1× Roche PCR reaction buffer, 10 ng human genomic DNA, 300 μM dNTPs, 240 nM GAPDH primer set A, 600 nM GAPDH primer set B, 1.2 μM GAPDH primer set C, and 1 unit Roche FastStart Taq polymerase. Cycling conditions were 2 minutes at 95° C. followed by 35 cycles of 30 seconds at 95° C., 30 seconds at 56° C., 30 seconds at 68° C., followed by 5 minutes at 68° C. PCR products were run on 2% agarose gels and visualized using ethidium bromide.

T1 sequence (P19821 whole entry): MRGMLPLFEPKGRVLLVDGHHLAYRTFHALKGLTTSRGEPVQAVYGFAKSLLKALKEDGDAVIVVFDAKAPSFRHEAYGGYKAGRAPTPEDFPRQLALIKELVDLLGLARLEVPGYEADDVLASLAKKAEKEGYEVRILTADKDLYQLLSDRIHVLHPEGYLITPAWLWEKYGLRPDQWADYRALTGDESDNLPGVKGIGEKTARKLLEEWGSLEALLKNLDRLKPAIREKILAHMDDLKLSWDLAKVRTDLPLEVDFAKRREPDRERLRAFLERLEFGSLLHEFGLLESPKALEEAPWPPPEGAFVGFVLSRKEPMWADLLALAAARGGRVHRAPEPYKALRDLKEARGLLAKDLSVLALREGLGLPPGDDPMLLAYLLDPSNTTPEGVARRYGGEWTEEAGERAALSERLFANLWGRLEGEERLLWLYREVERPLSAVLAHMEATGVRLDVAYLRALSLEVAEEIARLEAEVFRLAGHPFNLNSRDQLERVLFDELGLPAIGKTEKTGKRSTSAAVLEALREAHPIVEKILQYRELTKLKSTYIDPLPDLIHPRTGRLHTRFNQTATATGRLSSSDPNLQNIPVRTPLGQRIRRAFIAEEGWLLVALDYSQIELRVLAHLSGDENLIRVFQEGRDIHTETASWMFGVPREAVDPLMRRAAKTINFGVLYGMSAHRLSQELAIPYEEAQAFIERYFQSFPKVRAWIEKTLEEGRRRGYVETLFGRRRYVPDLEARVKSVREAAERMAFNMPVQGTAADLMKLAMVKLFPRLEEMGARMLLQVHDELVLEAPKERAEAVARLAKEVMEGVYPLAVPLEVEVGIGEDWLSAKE

With `C[N+]1(CCC(=O)[O-])CCC(O)CC1` (stereo not shown) [Compound 102, 3-(4-hydroxy-1-methylpiperidinium-1-yl)propanoate], the “polymerase activity after storage (end-point PCR)” value is reported as “provides increased stability”.
